According to ChEMBL document CHEMBL1158768, “Isolation and structure elucidation of the new fungal metabolite (-)-xylariamide A” (J Nat Prod, 2005):

Assays:
Assay type in all cases: organism-based
Settings in all cases: in vivo
Artemia salina [1] = test: Toxicity in Artemia salina
Artemia salina [2] = test: Toxicity in Artemia salina at 20 ug/mL
Artemia salina [3] = test: Toxicity in Artemia salina at 200 ug/mL

Compound	Activity (Artemia salina [1])	Activity (Artemia salina [2]) [%]	Activity (Artemia salina [3]) [%]
COC(=O)/C=C/C(=O)N[C@@H](Cc1ccc(O)c(Cl)c1)C(=O)O [(+)-XYLARIAMIDE A]	Non-toxic	–	–
COC(=O)/C=C/C(=O)N[C@H](Cc1ccc(O)c(Cl)c1)C(=O)O [(-)-XYLARIAMIDE A]	–	0	71
